Data on three molecules can be found in patent publication US9796711B2, “Substituted pyrazolo[3,4-b]pyridin-6-carboxylic acids and method of use” (AbbVie S.àr.l., priority 2015, dated 2017).

Holding throughout (assay type): cell-based
In one assay the target is T1, CFTR ΔF508 (Homo sapiens, UniProt P13569, DEL508-508).
T1 construct: bronchial epithelial cells isolated from CF patients homozygous for the CFTR ΔF508 mutation; McGill University; Asterand; University of North Carolina hAEC-CF; host or cells: primary human bronchial epithelial cells from CF patients homozygous for ΔF508
T1 sequence (P13569 with tags, fused parts or gaps DEL508-508): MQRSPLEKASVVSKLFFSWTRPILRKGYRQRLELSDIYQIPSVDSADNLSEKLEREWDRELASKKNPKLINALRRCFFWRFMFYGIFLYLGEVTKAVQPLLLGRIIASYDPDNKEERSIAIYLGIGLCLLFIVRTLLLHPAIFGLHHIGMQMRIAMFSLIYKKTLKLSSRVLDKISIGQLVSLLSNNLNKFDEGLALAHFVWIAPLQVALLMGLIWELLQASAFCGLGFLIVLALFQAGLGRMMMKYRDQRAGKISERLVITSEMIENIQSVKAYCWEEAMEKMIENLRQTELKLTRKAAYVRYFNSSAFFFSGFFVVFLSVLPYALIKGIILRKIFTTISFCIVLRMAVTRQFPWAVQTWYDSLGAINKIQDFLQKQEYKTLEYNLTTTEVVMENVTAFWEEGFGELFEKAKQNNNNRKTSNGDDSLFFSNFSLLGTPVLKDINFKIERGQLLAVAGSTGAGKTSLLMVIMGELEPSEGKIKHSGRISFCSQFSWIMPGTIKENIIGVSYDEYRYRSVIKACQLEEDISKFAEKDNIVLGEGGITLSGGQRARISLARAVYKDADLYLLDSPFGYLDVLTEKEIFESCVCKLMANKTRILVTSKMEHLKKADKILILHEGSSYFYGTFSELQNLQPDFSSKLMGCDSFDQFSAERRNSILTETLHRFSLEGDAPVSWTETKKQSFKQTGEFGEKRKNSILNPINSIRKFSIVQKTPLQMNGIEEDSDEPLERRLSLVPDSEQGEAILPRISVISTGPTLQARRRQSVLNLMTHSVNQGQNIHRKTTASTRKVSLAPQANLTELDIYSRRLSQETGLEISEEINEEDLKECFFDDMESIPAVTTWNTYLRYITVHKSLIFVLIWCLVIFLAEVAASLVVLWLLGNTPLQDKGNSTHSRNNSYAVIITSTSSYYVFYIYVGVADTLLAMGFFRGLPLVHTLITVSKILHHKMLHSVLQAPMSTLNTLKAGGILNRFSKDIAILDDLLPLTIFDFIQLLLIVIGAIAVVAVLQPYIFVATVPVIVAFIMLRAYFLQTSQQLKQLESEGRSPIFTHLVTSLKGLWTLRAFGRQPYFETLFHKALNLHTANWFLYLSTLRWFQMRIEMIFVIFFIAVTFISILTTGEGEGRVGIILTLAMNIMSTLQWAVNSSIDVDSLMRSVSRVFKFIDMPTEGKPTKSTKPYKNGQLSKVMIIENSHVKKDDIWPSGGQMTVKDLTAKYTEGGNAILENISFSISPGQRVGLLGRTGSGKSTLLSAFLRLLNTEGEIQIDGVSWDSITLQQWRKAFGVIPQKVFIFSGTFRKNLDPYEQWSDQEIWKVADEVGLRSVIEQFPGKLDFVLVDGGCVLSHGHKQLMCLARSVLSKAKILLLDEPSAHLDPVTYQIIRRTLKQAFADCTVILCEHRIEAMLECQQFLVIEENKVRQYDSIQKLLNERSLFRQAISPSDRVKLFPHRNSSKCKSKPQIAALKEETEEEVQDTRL
Briefly: Chronic TECC assay on primary bronchial epithelial cells (corrector, co-corrector and potentiator). Conditions: chronic TECC, AUC = full area under the curve upon forskolin stimulation, with co-corrector and potentiator, 24 hours. On the procedure:
Primary Bronchial Epithelial Cells Protocol
The TECC (Tranepithelial Clamp Circuit, EP-design) assay measures the functionality of the cystic fibrosis Transmembrane Conductance regulator (CFTR) by measuring the short circuit current (Isc) generated over the basolateral and apical membrane of lung epithelial cells. In TECC the transepithelial potential PD and transepithelial resistance (Rt)) are measured in an open circuit and transformed to Ieq using Ohm's law. 24 Wells can be measured simultaneously allowing a higher throughput compared to Ussing chambers.
For this purpose, bronchial epithelial cells isolated from CF patients homozygous for the CFTR ΔF508 mutation (hAEC-CF, Epithelix, Geneva, Switzerland; McGill University, Montreal, Qc; Asterand, Detroit, Mich.; University of North Carolina, Chapel Hill, N.C.) are plated on type IV collagen-coated Transwell® supports (Costar). Human airway epithelia are generated by provision of an air-liquid interface for 21 days to form well-differentiated polarized cultures that resemble in vivo pseudo-stratified ciliated epithelium (Fulcher, M. L., Gabriel, S., Burns, K. A., Yankaskas, J. R., Randell, S. H., 2005. Well-differentiated human airway epithelial cell cultures. Methods Mol. Med. 107, 183-206). The differentiated cells are treated with test corrector compound(s) (corrector alone or in combination with co-corrector, 4-[(2R,4R)-4-({[1-(2,2-difluoro-1,3-benzodioxol-5-yl)cyclopropyl]carbonyl}amino)-7-methoxy-3,4-dihydro-2H-chromen-2-yl]benzoic acid (G924806/A-1618261) (“acute”) or test corrector compounds, co-corrector and potentiator, N-(3-carbamoyl-5,5,7,7-tetramethyl-4,7-dihydro-5H-thieno[2,3-c]pyran-2-yl)-1H-pyrazole-5-carboxamide GLPG1837, (“chronic”) for 24 hours basolaterally to allow sufficient expression of properly folded CFTR protein on the membrane. All compound plates contained negative controls (DMSO) and positive controls (0.15 μM, 4-[(2R,4R)-4-({[1-(2,2-difluoro-1,3-benzodioxol-5-yl)cyclopropyl]carbonyl}amino)-7-(difluoromethoxy)-3,4-dihydro-2H-chromen-2-yl]benzoic acid).
For electrophysiological recording of the “chronic” experiments, the human airway epithelia are mounted in the TECC heating plate for electrophysiological measurement and kept at 37° C. The epithelia are bathed in a NaCl-Ringer solution (120 mM NaCl, 25 mM NaHCO3, 1.2 mM CaCl2, 1.2 mM MgCl2, 0.8 mM KH2PO4, 0.8 mM K2HPO4, pH 7.4, 5 mM glucose) on both the basolateral and apical sides. Test compounds (corrector, co-corrector, 4-[(2R,4R)-4-({[1-(2,2-difluoro-1,3-benzodioxol-5-yl)cyclopropyl]carbonyl}amino)-7-(difluoromethoxy)-3,4-dihydro-2H-chromen-2-yl]benzoic acid, and potentiator, N-(3-carbamoyl-5,5,7,7-tetramethyl-4,7-dihydro-5H-thieno[2,3-c]pyran-2-yl)-1H-pyrazole-5-carboxamide), are re-added to the recording solution prior to measurement. Apical amiloride is used to inhibit the endogenous ENaC currents while forskolin is applied on both apical and basolateral side to stimulate CFTR. Measurements are done during a 20 minute timeframe with recordings every 2 minutes. The increase in Ieq is used as a measure for the increased CFTR activity, EC50 values can be generated by measuring impact of different concentrations of compound on Ieq on primary cells, for this purpose each transwell is treated with a different compound concentration. Inhibitor-172, an inhibitor specific for CFTR, is used to test the specificity of the tested compounds. Raw data were normalized to percentage activity values using the equation: 100×(Sample−Negative control)/(Positive control−Negative Control).

In assay [1] the target is T2, ΔF508-CFTR (Homo sapiens, UniProt P13569, DEL508-508).
T2 construct: host or cells: CFBE41o-, doxycycline-inducible
T2 sequence (P13569 with tags, fused parts or gaps DEL508-508): as above
Briefly: CFTR cell surface levels using HRP-tagged ΔF508-CFTR expressing CFBE cells, in the presence of a co-corrector. Conditions: HRP-tagged ΔF508-CFTR expressing CFBE cells, in the presence of 3 μM co-corrector; for EC50: read-out: EC50. In outline:
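Cells were seeded with 0.5 μg/mL doxycycline and held 68 h at 37 °C. Test compounds plus 3 μM co-corrector (final 0.1% DMSO) were then added for 20 h at 33 °C. Washed cells received HRP substrate, and luminescence was normalized between DMSO and 3 μM co-corrector controls.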

Assay [2] addresses T2, ΔF508-CFTR. Put plainly: CFTR cell surface levels using HRP-tagged ΔF508-CFTR expressing CFBE cells, intrinsic corrector capacity. Conditions: HRP-tagged ΔF508-CFTR CFBE41o- cells, compounds alone (intrinsic corrector capacity), 20 hours at 33° C. In outline:
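Here the cells express ΔF508-CFTR with horseradish peroxidase inserted in extracellular loop 4, so only rescued channel at the surface gives luminescent signal. Compounds act on their own, 20 h at the reduced temperature of 33 °C; values are percent activity relative to DMSO and a 3 μM corrector.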

`COCC1CCN(c2cc(C(=O)O)nc3c2c(C2CCC2)nn3-c2ccc(F)cc2)CC1` [compound 657, 3-cyclobutyl-1-(4-fluorophenyl)-4-[4-(methoxymethyl)piperidin-1-yl]-1H-pyrazolo[3,4-b]pyridine-6-carboxylic acid]: at CFTR ΔF508 (read-out: EC50 (nM) (AUC)), the EC50 was 78 nM. Moreover, on ΔF508-CFTR [1], the “% Activation” value worked out at 543% and the EC50 was found to be 306 nM.
Regarding `O=C(O)c1cc(N2CCN(c3ccncc3)CC2)c2c(C3CCC3)nn(C3CCCCC3)c2n1` [compound 809, 3-cyclobutyl-1-cyclohexyl-4-[4-(pyridin-4-yl)piperazin-1-yl]-1H-pyrazolo[3,4-b]pyridine-6-carboxylic acid], the “% Activity at 1 μM (AUC**)” value on CFTR ΔF508 (1 μM) came out at 186.6667%. Besides, at ΔF508-CFTR [1], the “% Activation” value amounted to 452.2% and the EC50 was 184 nM.
`Cc1cccc(-n2nc(C(C)C)c3c(N4CCC(CF)CC4)cc(C(=O)O)nc32)c1` [compound 348, 4-[4-(fluoromethyl)piperidin-1-yl]-1-(3-methylphenyl)-3-(propan-2-yl)-1H-pyrazolo[3,4-b]pyridine-6-carboxylic acid]: the “% Activation” value at ΔF508-CFTR [1] is 410.3%; at ΔF508-CFTR [2] (positive control 3 μM corrector), 217.2%. Further, the EC50 on ΔF508-CFTR [1] came out at 370 nM; at ΔF508-CFTR [2] (read-out: EC50), 553 nM.

A word on the EC50: it is the concentration giving half of the maximal effect.
